In series [1] the test system is rat liver mitochondria. As to the kind of experiment: Respiration of isolated mitochondria fueled by succinate. The conditions noted are these: 20 μM. The series is classed as biochemical. As for the experimental part: (§1) Mitochondria were obtained from the liver of male Wistar rats (210–250 g) using the differential centrifugation method. The detailed procedure and composition of the isolation media were described earlier. The suspension of isolated mitochondria contained about 60–70 mg of mitochondrial protein per ml (determined by the Bradford method).
(§2) The rate of O2 consumption by mitochondrial samples was estimated using Oxygraph Plus (Hansatech Instruments Ltd., Pentney, King’s Lynn, UK). The reaction medium included 200 mM sucrose, 20 mM KCl, 0.5 mM EGTA, 5 mM KH2PO4, and 10 mM Hepes/KOH, pH 7.4. The following combinations of substrates and reagents were used: 2.5 mM potassium glutamate + 2.5 mM potassium malate and 5 mM potassium succinate + 1 µM rotenone. Under these conditions, it is possible to assess the oxygen-consuming capacity of mitochondria through complexes I and II of the electron transport chain. To determine the rates of the phosphorylating respiration (State 3) and uncoupled respiration (State 3UDNP) of the mitochondria, 200 µM ADP and 50 µM 2,4-dinitrophenol (DNP) were added sequentially. The concentration of mitochondrial protein was 1 mg/mL.

In series [2] the test system is rat liver mitochondria. The experiment in a line: Mitochondrial membrane potential (TPP-sensitive electrode). The series is classed as biochemical. The conditions noted are these: glutamate + malate or succinate + rotenone, Figure 5. On the procedure:
as §1
The mitochondrial membrane potential (Δψ) was measured using a penetrating tetraphenylphosphonium bromide (TPP) cation and a TPP-sensitive electrode (Nico-Analyte Ltd., Moscow, Russia) as described previously. The concentration of mitochondrial protein was 1 mg/mL.

In series [3] the test system is A549 cells (human lung carcinoma). The experiment in a line: MTT cytotoxicity assay, A549. The series is classed as cell-based. The conditions noted are these: for IC50: MTT assay, 48 h of treatment, mean ± SEM. The source says: (§3) All cell lines used in this study (human non-small cell lung cancer—H1299 (Accession Number—CRL-5803), human lung carcinoma—A549 (Accession Number—CCL-185), human breast adenocarcinoma—MCF-7 (Accession Number—HTB-22), human breast ductal carcinoma—BT474 (Accession Number—HTB-20)) were purchased from American Type Culture Collection (ATCC, Manassas, VA, USA). Human primary dermal fibroblasts (HPDF) derived from a patch of skin of healthy donors (n = 3) were obtained from the biobank of the Institute for Regenerative Medicine, Lomonosov Moscow State University, collection ID: MSU_FB (https://human.depo.msu.ru (accessed on 14 September 2021)). Cells were grown in DMEM media supplemented with 10% fetal bovine serum, 100 μg/mL gentamycin, and 2 mM of glutamine at 37 °C in a 5% CO2 atmosphere.
(§4) To carry out the MTT assay, 3500 cells per well were seeded in 96-well plates. […] DMSO was used as a control. […] After removing the thiazol-containing medium, 150 μL of isopropyl alcohol (supplemented with 40 mM HCl and 0.1% NP-40) was added to dissolve the MTT-formazan salt. The absorbance at 570 and 630 nm (reference) was measured using a BioRad iMark microplate reader (BioRad, Hercules, CA, USA). Four biological replicates were used for the experiment. The results were processed with Excel software (version number: 14.0.6023.1000 (32-bit)). IC50 values were calculated by using AAT Bioquest online calculator (https://www.aatbio.com/tools/ic50-calculator, accessed on 15 May 2023) and are represented as the mean ± SEM.
In general terms: Formazan colour is commonly taken as a measure of viable cells.

Series [4] has as its system rat liver mitochondria. The experiment in a line: Respiration of isolated mitochondria fueled by glutamate and malate. Conditions: 20 μM. The series is classed as biochemical. As for the experimental part:
as §1, §2

For series [5], the system named is BT474 cells (human breast ductal carcinoma). The experiment in a line: MTT cytotoxicity assay, BT474. The series is classed as cell-based. The conditions noted are these: BT-474, 48 h of treatment, mean ± SEM.
From the text: as §3
(§5) To carry out the MTT assay, 3500 cells per well were seeded in 96-well plates. A day after the seeding, triterpenoids or their derivatives dissolved in DMSO were added. DMSO was used as a control. At 48 h after cell seeding, 10 μL of 5 mg/mL Thiazolyl Blue (Paneko, Russia) solution was added to each well and cells were kept for 3 h at 37 °C in a CO2 incubator. After removing the thiazol-containing medium, 150 μL of isopropyl alcohol (supplemented with 40 mM HCl and 0.1% NP-40) was added to dissolve the MTT-formazan salt. The absorbance at 570 and 630 nm (reference) was measured using a BioRad iMark microplate reader (BioRad, Hercules, CA, USA). Four biological replicates were used for the experiment. The results were processed with Excel software (version number: 14.0.6023.1000 (32-bit)). IC50 values were calculated by using AAT Bioquest online calculator (https://www.aatbio.com/tools/ic50-calculator, accessed on 15 May 2023) and are represented as the mean ± SEM.

The subject of series [6] is H1299 cells (human non-small cell lung cancer). The experiment in a line: MTT cytotoxicity assay, H1299. The series is classed as cell-based. Conditions: mean ± SEM.
From the text: as §3, §5

Series [7] deals with MCF-7 cells (human breast adenocarcinoma). As to the kind of experiment: MTT cytotoxicity assay, MCF-7. The series is classed as cell-based. Conditions: Homo sapiens, MCF7; MTT assay, 48 h of treatment, mean ± SEM.
From the text: as §3, §5

In series [8] the test system is Human primary dermal fibroblasts (HPDF). As to the kind of experiment: MTT cytotoxicity assay, HPDF. Conditions: for IC50: Homo sapiens, Fibroblast, MTT assay, 48 h of treatment, mean ± SEM; for Selectivity against tumor cells and human fibroblasts: in words. The series is classed as cell-based.
From the text: as §3, §4

Where [9] appears, read: Homo sapiens, NCI-H1299, 48 h of treatment.

Where a name gives a salt, the structure may show the parent alone.

For `CC1(C)CC[C@]2(C(=O)O)CC[C@]3(C)C(=CC[C@@H]4[C@@]5(C)CC[C@H](O)C(C)(C)[C@@H]5CC[C@]43C)[C@@H]2C1` [OA, oleanolic acid, reference compound], the results for the ADP/O with rat liver mitochondria [1] and with rat liver mitochondria [4] were 1.45 ± 0.05 rel. un and 2.53 ± 0.12 rel. un, respectively. Besides, the “RC (state 3/state 4)” value with rat liver mitochondria [1] was found to be 2.80 ± 0.09 rel. un; in the series with rat liver mitochondria [4], 2.11 ± 0.12 rel. un. Moreover, the “State 2 respiration” value in the series with rat liver mitochondria [1] came out at 15.06 ± 0.15 nmol O2/min/mg Protein; with rat liver mitochondria [4] it was 8.39 ± 0.09 nmol O2/min/mg Protein. For the same compound, the “State 3UDNP respiration” value with rat liver mitochondria [1] stood at 69.92 ± 0.68 nmol O2/min/mg Protein; in the series with rat liver mitochondria [4] it was 35.74 ± 0.66 nmol O2/min/mg Protein. Further, the “State 3 respiration” value in the series on rat liver mitochondria [1] worked out at 48.00 ± 0.60 nmol O2/min/mg Protein; in the series on rat liver mitochondria [4], 27.31 ± 0.31 nmol O2/min/mg Protein. The “State 4 respiration” value was determined as 17.18 ± 0.78 nmol O2/min/mg Protein in the series on rat liver mitochondria [1] and 13.23 ± 0.18 nmol O2/min/mg Protein in the series with rat liver mitochondria [4]. Further, in the series on rat liver mitochondria [2], the “Effect on membrane potential of organelles” value is recorded as “slightly reduce the membrane potential”. The IC50 in series [3] (Homo sapiens, A549, 48 h) was found to be 236 µM; in [3], 234 ± 22.1 µM; in series [5] it was 150 ± 25.1 µM; in [6] (48 h of treatment), 139 ± 6.85 µM; in series [6] (Homo sapiens, NCI-H1299, 48 h, 48 h of treatment), 139 µM; in series [7], 114 ± 12.6 µM. Moreover, in [8], the IC50 amounted to 156 ± 10.4 µM. The “Selectivity against tumor cells and human fibroblasts” value in series [8] is recorded as “have not shown selectivity”.

`CC1(C)CCC2(C(=O)OCCCC[n+]3ccc(C=Cc4c[nH]c5ccccc45)cc3)CCC3(C)C(=CCC4C5(C)CC(O)C(O)C(C)(C)C5CCC43C)C2C1` (stereo not drawn) [MA-F16, N-{4-[(2α,3β-dihydroxy-olean-12-en-28-oyl)-butyl]-(E)-4-[2-(1H-indol-3-yl)-vinyl]}pyridinium bromide]: the IC50 worked out at 13.5 ± 2.02 µM in series [3] (Homo sapiens, A549, 48 h); 11.1 ± 2.51 µM in series [5]; 10.5 ± 2.44 µM in series [6] (setting [9]); 7.44 ± 0.78 µM in series [7]; 9.3 ± 2.56 µM in [8].

For `CC1CCC2(C(=O)OCCCC[n+]3ccc(C=Cc4c[nH]c5ccccc45)cc3)CCC3(C)C(=CCC4C5(C)CC(O)C(O)C(C)(C)C5CCC43C)C2C1C` (stereo not drawn) [CA-F16, N-{4-[(2α,3β-dihydroxy-urs-12-en-28-oyl)-butyl]-(E)-4-[2-(1H-indol-3-yl)-vinyl]}pyridinium bromide], the “Cytotoxicity higher than that of ursolic acid” value in [3] (A549 line, ratio of IC50 values) stood at 36 times. The IC50 amounted to 1.9 µM in series [3] (Homo sapiens, A549, 48 h); 1.87 ± 0.14 µM in series [3]; 6.7 ± 0.35 µM in series [5]; 4.01 ± 1.69 µM in series [6] (setting [9]); 1.89 ± 0.27 µM in [7]; 1.15 ± 0.38 µM in series [8].

With `CC1CCC2(C(=O)OCCCC[n+]3ccc(C=Cc4c[nH]c5ccccc45)cc3)CCC3(C)C(=CCC4C5(C)CC(O)C(O)C(C)(C)C5CCC43C)C2C1C` (stereo not drawn) (as salt: bromide) [CA-F16, N-{4-[(2α,3β-dihydroxy-urs-12-en-28-oyl)-butyl]-(E)-4-[2-(1H-indol-3-yl)-vinyl]}pyridinium bromide], the melting point was in the range of 219 to 221 °C.

As for `CC1(C)CCC2(C(=O)OCCCC[n+]3ccc(C=Cc4c[nH]c5ccccc45)cc3)CCC3(C)C(=CCC4C5(C)CC(O)C(O)C(C)(C)C5CCC43C)C2C1` (stereo not drawn) (as salt: bromide) [MA-F16, N-{4-[(2α,3β-dihydroxy-olean-12-en-28-oyl)-butyl]-(E)-4-[2-(1H-indol-3-yl)-vinyl]}pyridinium bromide], the melting point was 206 to 208 °C.

With `C[C@H]1[C@H](C)CC[C@]2(C(=O)O)CC[C@]3(C)C(=CC[C@@H]4[C@@]5(C)CC[C@H](O)C(C)(C)[C@@H]5CC[C@]43C)[C@H]12` [UA, ursolic acid, reference compound], in the series with rat liver mitochondria [1], the ADP/O worked out at 1.43 ± 0.04 rel. un, the “RC (state 3/state 4)” value is recorded as 3.32 ± 0.12 rel. un, the “State 2 respiration” value worked out at 15.19 ± 0.27 nmol O2/min/mg Protein and the “State 3UDNP respiration” value stood at 75.91 ± 1.74 nmol O2/min/mg Protein. In addition, in the series with rat liver mitochondria [1], the “State 3 respiration” value was determined as 49.15 ± 0.30 nmol O2/min/mg Protein and the “State 4 respiration” value stood at 15.54 ± 0.62 nmol O2/min/mg Protein. In the series on rat liver mitochondria [2], the “Effect on membrane potential of organelles” value was “did not show such an ability”. The same compound returned an IC50 in series [3] (Homo sapiens, A549, 48 h) of 68.9 µM. For the same compound, the IC50 in series [3] amounted to 68.9 ± 19.6 µM. For the same compound, in the series with rat liver mitochondria [4], the ADP/O stood at 2.82 ± 0.03 rel. un, the “RC (state 3/state 4)” value stood at 2.13 ± 0.09 rel. un, the “State 2 respiration” value stood at 8.01 ± 0.15 nmol O2/min/mg Protein and the “State 3UDNP respiration” value is 36.66 ± 1.47 nmol O2/min/mg Protein. In the series with rat liver mitochondria [4], the “State 3 respiration” value is reported as 26.92 ± 0.64 nmol O2/min/mg Protein and the “State 4 respiration” value is 12.65 ± 0.32 nmol O2/min/mg Protein. In addition, half-maximal inhibition in series [5] (IC50) was put at 110 ± 19.1 µM. For the same compound, inhibition in series [6] (setting [9]) was half-maximal at 97.6 ± 5.63 µM (IC50). The same compound had an IC50 in [7] of 40.6 ± 12.5 µM. Besides, in series [8], the IC50 was determined as 59.1 ± 7.73 µM; the “Selectivity against tumor cells and human fibroblasts” value was “have not shown selectivity”.

For orientation: IC50 means the concentration that gives 50% inhibition. In general, melting point refers to the temperature of the solid-liquid transition.

The values above are taken from PMC10303159, “Conjugation of Triterpenic Acids of Ursane and Oleanane Types with Mitochondria-Targeting Cation F16 Synergistically Enhanced Their Cytotoxicity against Tumor Cells” (Membranes, 2023).
